This is an account of results in patent publication US11564913B2, “Compositions and methods for treating cancer” (Children's Hospital Medical Center, priority 2019, dated 2023).

In assay [1] the test system is pPAK and pBAD in p190-BCR-ABL Ba/F3 cells. Nature of the assay: Immunoblot for pPAK(T423) and pBAD(S136). It is filed as cell-based, murine. The following applies: 3 μM, within minutes of cell exposure.
For the next assay, the target named is T1, LARG (DH/PH) (Homo sapiens, UniProt Q9NZN5).
T1 construct: the catalytic domain (DH/PH) of the RhoGEF LARG served as negative control; MBP; made in house
T1 sequence (Q9NZN5 765-1138 limits assumed): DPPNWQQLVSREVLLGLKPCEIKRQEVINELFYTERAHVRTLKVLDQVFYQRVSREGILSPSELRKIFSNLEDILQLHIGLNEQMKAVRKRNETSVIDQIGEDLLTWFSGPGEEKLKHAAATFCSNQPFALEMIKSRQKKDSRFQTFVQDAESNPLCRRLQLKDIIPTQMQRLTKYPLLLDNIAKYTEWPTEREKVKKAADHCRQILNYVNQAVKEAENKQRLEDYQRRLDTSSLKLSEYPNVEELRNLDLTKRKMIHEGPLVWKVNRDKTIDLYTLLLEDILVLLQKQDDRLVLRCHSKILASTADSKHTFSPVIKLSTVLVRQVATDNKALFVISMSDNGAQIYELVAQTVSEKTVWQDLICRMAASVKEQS
Nature of the assay: Microscale thermophoresis (MST) binding. The note with it: no saturation at highest concentration tested, read-out: Kd, best estimate. How it is done: FIG. 14: IODVA1 targets Vav3 in vitro and in vivo. (A) Ba/F3 cells expressing empty vector Mieg3 or p190-BCR-ABL1 were treated with vehicle control or IODVA1 (IO1, 3 μM) for 30 min and incubated with GST-Rac and glutathione beads. Beads were washed and the protein complexes were separated on SDS-PAGE and immunoblotted for pVav3. Input Vav3 was used as control. (B) Binding affinity (Kd) between IODVA1 and Vav3 (green), LARG (brown), and RacGDP (blue). […] Error bars=SD; N=3. (C) Quantification of the average number of colonies made by bone marrow wild-type (black) and Vav3^−/− (lilac) p190-BCR-ABL1 leukemic cells treated with vehicle control or IODVA1 (IO1, 1 and 3 μM) (* p≤0.05; ** p≤0.01; *** p≤0.001; ns, not significant). (D) Representative histogram data of the cell cycle analysis of wild-type (black and grey bars) and Vav3^−/− (dark and light lilac) bone marrow cells expressing p190-BCR-ABL and treated with vehicle control or IODVA1 (IO1, 3 μM) for 20 h. (E) Quantification by densitometry of the pVav3 band from FIG. 14A. […]
To test this hypothesis, we measured its binding affinity (Kd) to recombinant Vav3 and Rac1 using microscale thermophoresis (MST); the catalytic domain (DH/PH) of the RhoGEF LARG served as negative control. […] Second, like Vav3, LARG contains a DH/PH domain responsible for the exchange activity such that any non-specific binding to this domain should be detected. […]

The test system of assay [2] is H2122 lung cancer xenografts. Description: H2122 xenograft mouse model. It is filed as in vivo, mice. An excerpt:
FIG. 8: IODVA1 inhibits tumor growth of human breast and lung cancer xenografts. […] (B) Tumors were also stained for Ki67 as a proliferation marker (top panel). […] (C) Quantification of Ki67-positive and cleaved caspase 3-positive cells of tumors shown in (B). […] Animals began treatment when tumors became detectable at 10 days post-injection (*, p<0.05). […] IODVA1 treated tumors also had fewer proliferating cells compared to control vehicle treated animals, as determined by immunohistochemical staining for Ki67 (bottom) and increased intratumoral fibrosis. Representative images were taken at 100× magnification, scale bar is 200 μm. (F) Quantification of Ki67+ cells in control and IODVA1 treated tumors shown in (E).
The lung cancer mouse model was generated by injecting the lung cancer H2122 cells at the right and left flanks of NSG mice. These cells harbor the KRAS^G12C mutation and form aggressive tumors. Mice were treated with IODVA1 or with vehicle control every other day for 14 days. […]
Human lung cancer cell line NCI-H2122 (ATCC) harboring biallelic KRAS^G12C mutations were cultured in RPMI-1640 supplemented with 10% FBS. […] Tumor size was measured using digital calipers and tumor volume estimated using the formula (length×width^2)/2. […] A minimum of 20 random fields were used for quantification. […]

As a reminder, the Kd is the concentration at which binding is half-saturated. On to `OC1(c2ccccn2)N=C(Nc2nc3ccccc3[nH]2)N=C1c1ccccn1` (centres unmarked) [IODVA1, (Z)-2-((1H-benzo[d]imidazol-2-yl)imino)-4,5-di(pyridin-2-yl)-2,5-dihydro-1H-imidazol-5-ol], for which, in assay [1], the “inhibitory phosphorylation of BAD Ser136” value is listed as “decreases” and the pPAK result is on record as “decreases”. Also, at LARG (DH/PH), the Kd was around 7.7 µM. Also, the tumor volume entry in assay [2] (IP 250 μl of 1 mM every other day for 14 days) is reported as “significant decrease”. Further, in assay [2] (IP every other day for 14 days), the “number of Ki67-positive tumor cells” value is reported as “significant decrease”.
